The values that follow come from article PMC11943016, “TBG096 Ameliorates Memory Deficiency in AD Mouse Model via Promoting Neurogenesis and Regulation of Hsc70/HK2/PKM2/LAMP2A Signaling Pathway” (International Journal of Molecular Sciences, 2025).

SMILES strings stand for the structures.

Assay [1] deals with BV-2 microglial cells. Briefly: Anti-inflammatory activity in LPS-treated BV-2 cells (Iba1 fluorescence). It counts as cell-based. The settings on record: 24 h. As for the experimental part: BV-2 cells were obtained from Nanjing CoBioer Biotechnology Ltd., Co., Nanjing, China, and cultured in RPMI 1640 medium (Roswell Park Memorial Institute 1640 medium, Gibco, Grand Island, NY, USA) supplemented with 10% FBS and 1% penicillin/streptomycin. The anti-inflammatory activity of samples in BV-2 cells was determined as follows. Approximately 5 × 10^4 cells were seeded in each well of a 24-well microplate and were cultured under a humidified atmosphere with 5% CO2 at 37 °C for 24 h. Then, the medium was replaced by 500 µL RPMI 1640 medium containing 0.5% DMSO or samples at different concentrations for 2 h, and 500 µL medium containing LPS (1 µg/mL) was added and incubated for 24 h. Next, the medium of each well was sucked out, and each well was washed with phosphate-buffered saline (PBS) three times and fixed with 4% paraformaldehyde (500 µL/well) for 20 min at room temperature. The fixative was discarded, washed with PBS, and blocked for 60 min. […] After that, the cell nucleus was stained with diluted DAPI (SouthernBiotech, Birmingham, AL, USA) for 10 min, and the fluorescence image of BV-2 cells was observed under the fluorescence inverted microscope. Three regions were randomly selected to be observed and recorded with pictures. Image J software version 1.8.0 (National Institutes of Health, Bethesda, MD, USA) was finally used to analyze the fluorescence density of BV-2 cells.

Assay [2] has as its system Wnt gene family (Wnt10b, Wnt5a, and Wnt1). Briefly: Transcriptome sequencing and qRT-PCR of brain samples of HFD-induced AD mice. The settings on record: GSEA-GO, qRT-PCR confirmed Wnt10b and Wnt5a. It counts as in vivo. On the procedure:
Total RNA was extracted and quantified from 50 mg of the cerebral cortex using TRIzol reagent (Invitrogen, Carlsbad, CA, USA) and NanoDrop (Thermo Fisher Scientific, Waltham, MA, USA), respectively. Subsequently, 2.5 µg of RNA from each sample was reverse-transcribed using a HiFi-MMLV cDNA kit (Cowin Biotechnology Company, Beijing, China). Transcripts were quantified by PCR analysis performed with a CFX 96 Touch (Bio-Rad, Hercules, CA, USA) and SYBR Premixed EX Taq (Takara, Otsu, Japan). PCR was performed under the following conditions: 95 °C for 2 min, followed by 40 cycles, 94 °C for 15 s, 60 °C for 25 s, and 72 °C for 10 s. All results were normalized to the level of 18S RNA, and the relative mRNA transcription levels were estimated by 2^−ΔΔCT. The number of animal samples in each group was five, and all samples were run in triplicate, and their average values were calculated. The mouse primers of Wnt10b (NM_011718.2), Wnt5a (NM_001256224.2), and 18S RNA (NR_003278.3) were synthesized by Sangon Biotech Co., Ltd. (Shanghai, China), and their sequences are as follows: Wnt10b-sense: 5′-[…]-3′; antisense: 5′-[…]-3′. Wnt5a-sense: 5′-[…]-3′; antisense: 5′-[…]-3′. 18S-sense: 5′-[…]-3; antisense: 5′-[…]-3′.
After extracting total RNA (5 µg) from cerebral cortex samples, mRNA was purified using Dynabeads Oligo(dT) (Thermo Fisher, Waltham, MA, USA), involving two purification steps. […]
On the technique in general: In qPCR the cycle at which signal appears reflects the starting amount.

For assay [3], the system named is AMPK, p-AMPK, Hsc70, PKM2, HK2, LAMP2A, APP, Tau, p-Tau, Aβ oligomers. Briefly: Western blot of cerebral cortex of HFD-induced AD mice. Type of assay: in vivo. The source says: In experiments with the HFD-induced AD mouse model, a total of 60 Institute of Cancer Research (ICR) male mice aged 4 weeks from Zhejiang Academy of Medical Sciences (Hangzhou, China) were used for animal experiments (permit number: ZJU20230121). The animals were provided free access to a chow diet and water. […] The HFD and normal diet were alternated every two days to maintain freshness. Weekly measurements were taken for water intake, food intake, and body weight. In the eighteenth week, the mice underwent Y-maze and NOR tests. The Morris water maze test was conducted during the nineteenth week. After confirming the successful establishment of the AD model characterized by cognitive impairment, oral administration of treatments commenced. […] Each group had 10 mice.
Approximately 50 mg of cerebral cortex from brain tissues was homogenized in RIPA lysis buffer containing 1% protease inhibitor and 1% phosphatase inhibitor. Then, the sample was centrifuged at 12,000 rpm at 4 °C for 10 min, and the supernatant was transferred to a new tube. Protein concentrations were determined using the BCA kit, and 30 µg of protein from each sample was denatured by heating in water at 100 °C for 10 min. […] Finally, the strip was developed using chemiluminescence ECL reagent, and the blot density was quantified with ImageJ (National Institutes of Health, Bethesda, MD, USA).
Background: A western blot detects proteins with antibodies after separation by electrophoresis.

As to `O=C(SCCCCCCSCCCC(F)(F)F)c1cccc(O)c1O` [TBG096], in assay [1], the “LPS-induced overactivation of BV-2 cells” value is listed as “dose-dependently inhibited” and the “optimal concentration for inhibition of LPS-induced overactivation of BV-2 cells” value was 0.3 µM. In addition, the “expression of the Wnt gene family (Wnt10b, Wnt5a, and Wnt1)” value in assay [2] is reported as “enhancing the expression”. The “phosphorylated AMPK/AMPK, LAMP2A, Hsc70, HK2 and PKM2 protein levels” value in assay [3] is listed as “returned to normal”. In addition, the “APP, Tau, p-Tau, and Aβ oligomers protein expression” value in assay [3] (vs HFD) is given as “significantly reduced”.
